Assay results as given in patent US20060079453A1, “Hla binding peptides and their uses” (priority 2002, published 2006).
Where two headings read alike, the source gives them in different places. No end group written: not given here.

Experiments:
Experiment in all cases: biochemical
Assay type in all cases: binding
HLA-DR DRB1*1501 (DR15) = HLA-DR DRB1*1501 (DR15) (Homo sapiens, UniProt P01903+P01911); conditions: DRBI *1501
HLA-DR DRB1*0901 (DR9) = HLA-DR DRB1*0901 (DR9) (Homo sapiens, UniProt P01903+P01911, A100R/A103E/D57H/D86V/F55Y/F60I/F76Y/I96F/K127E/L162R/M171V/P40D/Q125H/Q99R/R33Q/R42F/S133A/S66N/T210M/V115G/W38K/Y107V/Y59G/Y89S)
HLA-DR DRB1*1302 (DR13) = HLA-DR DRB1*1302 (DR13) (Homo sapiens, UniProt P01903+P01911, A100E/A169T/K41T/L162R/M171V/P40S/Q125H/Q178H/Q39Y/Q99D/R42S/S66N/T262R/V115G/W38E/Y61H); conditions: DRBI *1302
Chain of HLA-DR DRB1*1302 (DR13) (P01903 26-254 limits assumed, other chains not shown): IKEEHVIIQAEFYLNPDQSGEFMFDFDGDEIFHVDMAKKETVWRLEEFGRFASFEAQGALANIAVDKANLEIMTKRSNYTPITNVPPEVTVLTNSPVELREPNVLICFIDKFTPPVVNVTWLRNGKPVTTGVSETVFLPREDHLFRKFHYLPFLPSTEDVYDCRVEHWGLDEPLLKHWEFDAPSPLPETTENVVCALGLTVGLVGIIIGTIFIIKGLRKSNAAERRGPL

HLA-DR DRB1*0701 (DR7) = HLA-DR DRB1*0701 (DR7) (Homo sapiens, UniProt P01903+P01911, A100R/A102G/A103Q/D57E/D86V/E43K/F76Y/K127E/L162R/M171V/P40G/Q125H/Q99D/R33Q/R42Y/R54Q/S133A/S66F/T210M/V115G/Y107V/Y59L/Y89S)
HLA-DR DRB1*0301 (DR3) = HLA-DR DRB1*0301 (DR3) (Homo sapiens, UniProt P01903+P01911, A100K/A102G/A103R/A169T/F55Y/I96L/K41T/L162R/M171V/P40S/Q125H/Q178H/Q39Y/R42S/S66N/T106N/T262R/W38E/Y61H)
Chain of HLA-DR DRB1*0301 (DR3) (P01903 26-254 limits assumed, other chains not shown): as above

HLA-DR DRB5*0101 (DR51) = HLA-DR DRB5*0101 (DR51) (Homo sapiens, UniProt P01903+Q30154); conditions: DRB5 *0101
HLA-DR DRB4*0101 (DR53) = HLA-DR DRB4*0101 (DR53) (Homo sapiens, UniProt P01903+P13762, G164S); conditions: DRB4 *0101
HLA-DR DRB1*0401 (DR4) = HLA-DR DRB1*0401 (DR4) (Homo sapiens, UniProt P01903+P01911, A100K/A169T/F76Y/I96L/K127E/L162R/M171V/N62H/P40V/Q125Y/R42H/S133A/S149N/S66Y/V115G/V209L/W38E)
HLA-DR DRB1*0101 (DR1) = HLA-DR DRB1*0101 (DR1) (Homo sapiens, UniProt P01903+P01911, A100R/D57E/F55L/F60I/F76Y/I96L/L162R/M171V/P40L/Q125E/R42F/V115G/Y59C)
HLA-DR DRB1*1101 (DR11) = HLA-DR DRB1*1101 (DR11) (Homo sapiens, UniProt P01903+P01911, A100R/A169T/A87E/I96F/K41T/L162R/M171V/P40S/Q125H/Q178H/Q39Y/Q99D/R42S/S66Y/T262R/V115G/W38E); conditions: DRB1 *1101
Chain of HLA-DR DRB1*1101 (DR11) (P01903 26-254 limits assumed, other chains not shown): as above

HLA-DR DRB1*0802 (DR8) = HLA-DR DRB1*0802 (DR8) (Homo sapiens, UniProt P01903+P01911, A100R/A103L/A169T/F76Y/H45Y/I96F/K41T/L162R/M171V/P40S/Q125H/Q178H/Q39Y/Q99D/R218S/R42G/S66Y/V115G/W38E)

Row | Compound | IC50 (HLA-DR DRB1*1501 (DR15)) [µM] | IC50 (HLA-DR DRB1*0901 (DR9); DRB1 *0901) [µM] | IC50 (HLA-DR DRB1*1302 (DR13)) [µM] | IC50 (HLA-DR DRB1*0701 (DR7); DRB1 *0701) [µM] | IC50 (HLA-DR DRB1*0301 (DR3)) [µM] | IC50 (HLA-DR DRB5*0101 (DR51)) [µM] | IC50 (HLA-DR DRB4*0101 (DR53)) [µM] | IC50 (HLA-DR DRB1*0401 (DR4); DRB1 *0401) [µM] | IC50 (HLA-DR DRB1*0101 (DR1); DRB1 *0101) [µM] | IC50 (HLA-DR DRB1*1101 (DR11)) [µM] | IC50 (HLA-DR DRB1*0401 (DR4); read-out: DRB1 *0401) [µM] | IC50 (HLA-DR DRB1*0101 (DR1); read-out: DRB1 *0101) [µM] | IC50 (HLA-DR DRB1*0901 (DR9); read-out: DRB1 *0901) [µM] | IC50 (HLA-DR DRB1*0301 (DR3); read-out: DRB1 *0301) [µM] | other results
1 | CC(C)C[C@H](NC(=O)[C@H](CCC(N)=O)NC(=O)[C@H](CCC(N)=O)NC(=O)[C@@H](N)Cc1ccccc1)C(=O)N[C@@H](Cc1ccccc1)C(=O)N[C@@H](CC(C)C)C(=O)N[C@@H](CC(N)=O)C(=O)N[C@H](C(=O)N[C@@H](CC(C)C)C(=O)N[C@@H](CO)C(=O)N[C@@H](Cc1ccccc1)C(=O)N[C@H](C(=O)N[C@@H](CS)C(=O)N1CCC[C@H]1C(=O)N[C@@H](Cc1c[nH]c2ccccc12)C(=O)O)C(C)C)[C@@H](C)O | 24.8 | 2.06 | 0.0093 |  |  |  |  |  |  |  |  |  |  |  | 
2 | CC[C@H](C)[C@H](N)C(=O)N[C@@H](CCCNC(=N)N)C(=O)N[C@H](C(=O)N[C@@H](CC(C)C)C(=O)N[C@@H](CCC(N)=O)C(=O)N[C@@H](CCC(=O)O)C(=O)N[C@@H](CC(C)C)C(=O)N[C@@H](CC(C)C)C(=O)N[C@@H](CCSC)C(=O)NCC(=O)N[C@@H](CO)C(=O)N[C@@H](Cc1ccccc1)C(=O)NCC(=O)N[C@H](C(=O)N[C@H](C(=O)O)C(C)C)[C@@H](C)CC)[C@@H](C)CC | 0.294 | 0.271 | 1.04 | 2 | 31.8 | > 55.1 | 0.017 | 0.724 | 0.067 | 7.98 |  |  |  |  | 
3 | CC[C@H](C)[C@H](NC(=O)[C@H](CC(C)C)NC(=O)[C@H](CCCCN)NC(=O)[C@H](CCCCN)NC(=O)[C@@H](N)Cc1ccc(O)cc1)C(=O)N[C@@H](CCSC)C(=O)N[C@@H](Cc1ccc(O)cc1)C(=O)N[C@@H](CO)C(=O)N[C@@H](C)C(=O)N[C@@H](Cc1c[nH]cn1)C(=O)N[C@@H](CC(=O)O)C(=O)N[C@H](C(=O)N[C@H](C(=O)N[C@H](C(=O)N[C@@H](CO)C(=O)O)C(C)C)[C@@H](C)O)[C@@H](C)O | 0.015 | 0.107 | 0.037 |  | 22.7 | 5.48 | 0.0058 |  | 0.017 | 0.208 |  |  |  |  | 
4 | ALLIIPPKIHISIEL | 1.82 |  |  | 0.0084 |  | 7.14 | 0.01 | 1.74 | 0.648 |  |  |  |  |  | IC50 (HLA-DR DRB1*0802 (DR8)): 12 µM
5 | AVGLPSTPVHPIGYY |  |  |  |  |  |  |  |  |  |  | 4.19 | 0.0036 |  |  | IC50 (HLA-DR DRB1*0802 (DR8); read-out: DRB1 *0802): 4.43 µM
6 | DIRILQELLMGSFGI | 1.62 |  | 5.8 | 1.59 | 3.25 | > 55.1 | 0.016 |  | 0.088 | 19 |  |  |  |  | 
7 | FPTIPLSRLFDNAM |  |  |  |  |  |  |  |  |  |  | 9.46 | 6.92 | 15 | 46.7 | IC50 (HLA-DR DRB1*0701 (DR7); read-out: DRB1 *0701): 5.53 µM
8 | GGVLVNEILNHMK |  |  |  |  |  |  |  |  |  |  | 0.359 |  | 54.4 | 0.7 | IC50 (HLA-DR DRB1*0701 (DR7); read-out: DRB1 *0701): 29.5 µM
9 | GVIYIMIISKKMMRK | 0.173 |  |  |  |  | 0.046 | 0.157 | 0.022 | 0.01 |  |  |  |  |  | IC50 (HLA-DR DRB1*0802 (DR8)): 0.137 µM
10 | GYKVLVLNPSV |  |  |  |  |  |  |  |  |  |  | 0.027 | 0.016 | 8.79 | 72.4 | 
